Experiments:
[1] = test system: human Na,K-ATPase α2β3FXYD1; experiment: biochemical; format: biochemical
[2] = molecular target: human Na,K-ATPase α2β1FXYD1 (Homo sapiens, UniProt P50993); experiment: biochemical; format: biochemical

| Compound | Selectivity Ki ratio α1β1/α2β3 [1] | Selectivity Ki ratio α1β1/α2β1 [2] |
| --- | --- | --- |
| CC1CN(CC(F)(F)F)CCC(O[C@@H]2[C@H](C)O[C@@H](O[C@@H]3[C@H](C)O[C@@H](O[C@H]4CC[C@@]5(C)C(CCC6C5C[C@H](O)[C@]5(C)[C@@H](C7=CC(=O)OC7)CC[C@]65O)C4)C[C@@H]3O)C[C@@H]2O)O1 (some centres unmarked) [DCF3] | 9.6 | 4.1 |
| CC1CN(C2CCCC2)CCC(O[C@@H]2C(C)O[C@@H](OC3C(C)OC(O[C@H]4CC[C@@]5(C)C(CCC6C5CC(O)[C@]5(C)[C@@H](C7=CC(=O)OC7)CC[C@]65O)C4)C[C@@H]3O)C[C@@H]2O)O1 (stereo in doubt) [DcPe, 4-((3S,5R,8R,9S,10S,12R,13S,14S,17R)-3-(((2S,4S,5R,6R)-5-(((2S,4S,5S,6R)-5-((4-cyclopentyl-2-methyl-1,4-oxazepan-7-yl)oxy)-4-hydroxy-6-methyltetrahydro-2H-pyran-2-yl)oxy)-4-hydroxy-6-methyltetrahydro-2H-pyran-2-yl)oxy)-12,14-dihydroxy-10,13-dimethylhexadecahydro-1H-cyclopenta[a]phenanthren-17-yl)furan-2(5H)-one] | 5 | – |
| CC1CN(C(C)C)CCC(O[C@@H]2[C@H](C)O[C@@H](O[C@@H]3[C@H](C)O[C@@H](O[C@H]4CC[C@@]5(C)C(CCC6C5C[C@H](O)[C@]5(C)[C@@H](C7=CC(=O)OC7)CC[C@]65O)C4)C[C@@H]3O)C[C@@H]2O)O1 (some centres unmarked) [DiP] | – | 5.1 |
| CC1CN(C2CC2)CCC(O[C@@H]2C(C)O[C@@H](O[C@@H]3C(C)O[C@@H](O[C@H]4CC[C@@]5(C)C(CCC6C5CC(O)[C@]5(C)[C@@H](C7=CC(=O)OC7)CC[C@]65O)C4)C[C@@H]3O)C[C@@H]2O)O1 (stereo in doubt) [DcP, 4-((3S,5R,8R,9S,10S,12R,13S,14S,17R)-3-(((2R,4S,5S,6R)-5-(((2S,4S,5S,6R)-5-((4-cyclopropyl-2-methyl-1,4-oxazepan-7-yl)oxy)-4-hydroxy-6-methyltetrahydro-2H-pyran-2-yl)oxy)-4-hydroxy-6-methyltetrahydro-2H-pyran-2-yl)oxy)-12,14-dihydroxy-10,13-dimethylhexadecahydro-1H-cyclopenta[a]phenanthren-17-yl)furan-2(5H)-one] | – | 7.5 |
| CC1CN(C(C)(C)C)CCC(O[C@@H]2[C@H](C)O[C@@H](O[C@@H]3[C@H](C)O[C@@H](O[C@H]4CC[C@@]5(C)C(CCC6C5C[C@H](O)[C@]5(C)[C@@H](C7=CC(=O)OC7)CC[C@]65O)C4)C[C@@H]3O)C[C@@H]2O)O1 (some centres unmarked) [DtB] | 8.2 | 6.2 |
| CC1CN(CC2CC(C)(C)C2)CCC(O[C@@H]2C(C)O[C@@H](OC3C(C)OC(O[C@H]4CC[C@@]5(C)C(CCC6C5CC(O)[C@]5(C)[C@@H](C7=CC(=O)OC7)CC[C@]65O)C4)C[C@@H]3O)C[C@@H]2O)O1 (stereo in doubt) [DMDMcB, 4-((3S,5R,8R,9S,10S,12R,13S,14S,17R)-3-(((2S,4S,5R,6R)-5-(((2S,4S,5 S,6R)-5-((4-((3,3-dimethylcyclobutyl)methyl)-2-methyl-1,4-oxazepan-7-yl)oxy)-4-hydroxy-6-methyltetrahydro-2H-pyran-2-yl)oxy)-4-hydroxy-6-methyltetrahydro-2H-pyran-2-yl)oxy)-12,14-dihydroxy-10,13-dimethylhexadecahydro-1H-cyclopenta[a]phenanthren-17-yl)furan-2(5H)-one] | 10-12 | – |
| CC1CN(Cc2ccccc2)CCC(O[C@@H]2C(C)O[C@@H](OC3C(C)OC(O[C@H]4CC[C@@]5(C)C(CCC6C5CC(O)[C@]5(C)[C@@H](C7=CC(=O)OC7)CC[C@]65O)C4)C[C@@H]3O)C[C@@H]2O)O1 (stereo in doubt) [DBz, 4-((3S,5R,8R,9S,10S,12R,13S,14S,17R)-3-(((2S,4S,5R,6R)-5-(((2S,4S,5S,6R)-5-((4-benzyl-2-methyl-1,4-oxazepan-7-yl)oxy)-4-hydroxy-6-methyltetrahydro-2H-pyran-2-yl)oxy)-4-hydroxy-6-methyltetrahydro-2H-pyran-2-yl)oxy)-12,14-dihydroxy-10,13-dimethylhexadecahydro-1H-cyclopenta[a]phenanthren-17-yl)furan-2(5H)-one] | 10-12 | 5.7 |
| CC1CN(CCC2CC2)CCC(O[C@@H]2C(C)O[C@@H](OC3C(C)OC(O[C@H]4CC[C@@]5(C)C(CCC6C5CC(O)[C@]5(C)[C@@H](C7=CC(=O)OC7)CC[C@]65O)C4)C[C@@H]3O)C[C@@H]2O)O1 (stereo in doubt) [DEcP, 4-((3S,5R,8R,9S,10S,12R,13S,14S,17R)-3-(((2S,4S,5R,6R)-5-(((2S,4S,5S,6R)-5-((4-(2-cyclopropylethyl)-2-methyl-1,4-oxazepan-7-yl)oxy)-4-hydroxy-6-methyltetrahydro-2H-pyran-2-yl)oxy)-4-hydroxy-6-methyltetrahydro-2H-pyran-2-yl)oxy)-12,14-dihydroxy-10,13-dimethylhexadecahydro-1H-cyclopenta[a]phenanthren-17-yl)furan-2(5H)-one] | 10-12 | – |
| CC1CN(CCS(C)(=O)=O)CCC(O[C@@H]2C(C)O[C@@H](OC3C(C)OC(O[C@H]4CC[C@@]5(C)C(CCC6C5CC(O)[C@]5(C)[C@@H](C7=CC(=O)OC7)CC[C@]65O)C4)C[C@@H]3O)C[C@@H]2O)O1 (stereo in doubt) [DESM, 4-((3S,5R,8R,9S,10S,12R,13S,14S,17R)-12,14-dihydroxy-3-(((2S,4S,5R,6R)-4-hydroxy-5-(((2S,4S,5S,6R)-4-hydroxy-6-methyl-5-((2-methyl-4-(2-(methylsulfonyl)ethyl)-1,4-oxazepan-7-yl)oxy)tetrahydro-2H-pyran-2-yl)oxy)-6-methyltetrahydro-2H-pyran-2-yl)oxy)-10,13-dimethylhexadecahydro-1H-cyclopenta[a]phenanthren-17-yl)furan-2(5H)-one] | – | 9.4 |
| CC1CN(CS(C)(=O)=O)CCC(O[C@@H]2C(C)O[C@@H](OC3C(C)OC(O[C@H]4CC[C@@]5(C)C(CCC6C5CC(O)[C@]5(C)[C@@H](C7=CC(=O)OC7)CC[C@]65O)C4)C[C@@H]3O)C[C@@H]2O)O1 (stereo in doubt) [DMSM, 4-((3S,5R,8R,9S,10S,12R,13S,14S,17R)-12,14-dihydroxy-3-(((2S,4S,5R,6R)-4-hydroxy-5-(((2S,4S,5S,6R)-4-hydroxy-6-methyl-5-((2-methyl-4-((methylsulfonyl)methyl)-1,4-oxazepan-7-yl)oxy)tetrahydro-2H-pyran-2-yl)oxy)-6-methyltetrahydro-2H-pyran-2-yl)oxy)-10,13-dimethylhexadecahydro-1H-cyclopenta[a]phenanthren-17-yl)furan-2(5H)-one] | – | 6.9 |
| CC1CN(C2CCCCC2)CCC(O[C@@H]2C(C)O[C@@H](OC3C(C)OC(O[C@H]4CC[C@@]5(C)C(CCC6C5CC(O)[C@]5(C)[C@@H](C7=CC(=O)OC7)CC[C@]65O)C4)C[C@@H]3O)C[C@@H]2O)O1 (stereo in doubt) [DcH, 4-((3S,5R,8R,9S,10S,12R,13S,14S,17R)-3-(((2S,4S,5R,6R)-5-(((2S,4S,5S,6R)-5-((4-cyclohexyl-2-methyl-1,4-oxazepan-7-yl)oxy)-4-hydroxy-6-methyltetrahydro-2H-pyran-2-yl)oxy)-4-hydroxy-6-methyltetrahydro-2H-pyran-2-yl)oxy)-12,14-dihydroxy-10,13-dimethylhexadecahydro-1H-cyclopenta[a]phenanthren-17-yl)furan-2(5H)-one] | 10-12 | – |

— US11077128B2, “Selective inhibitors of Alpha2-containing isoforms of Na,K-ATPase and use thereof for reduction of intraocular pressure” (Yeda Research and Development Co. Ltd., priority 2015, dated 2021)
